Reference: US6645690B2, “Photographic member with flexibilizer material” (Eastman Kodak Company, priority 2001, dated 2003)
Where a name gives a salt, the structure may show the parent alone.

Assay: Log P (octanol-water partition coefficient) of flexibilizer agents
Conditions: not given

Compound	Log P
2,3-dimethylpropanediol [FA2]	0.13

Assay: physchem
Conditions: not given

Compound	logP
OCCO [FA8, Ethylene glycol, reference compound]	-1.2
OCCOCCO [FA10, 2,2′-oxydiethanol, reference compound]	-1.47
OCCOc1ccccc1 [FA6, 2-phenoxyethanol]	1.1
COC(=O)c1ccc(O)cc1 [FA9, Methyl-4-hydroxybenzoate sodium salt, reference compound]	-1.34
CC(O)CCO (stereo not shown) [FA1, 1,3-butanediol]	-0.29

Same assay, conditions: octanol/water

Compound	logP
OCCCCCO [FA3, 1,5-pentanediol]	0.27
CCCCC(O)CO (stereo not shown) [FA4, 1,2-hexanediol]	0.69
OCCCCCCO [FA5, 1,6-hexanediol]	0.76
CCCCC(CC)CO (stereo not shown) [FA7, 2-ethyl-1-hexanol]	2.73
